A short description of data set [1]: Solubility of the ibuprofen derivative in water in the absence of β-CD (S0), UV 226 nm. It is filed as physicochemical. The following applies: water without β-CD, 25 °C, from calibration curves. As for the experimental part: (§1) Stock solutions of β-CD were prepared in the concentration range of 0–15 mmol/L. From each stock solution 1 mL was taken and introduced into thermomixer flasks and 1 mL of suprasaturated solution of 4b, 4g, 4k, 4m was added and stirred at 600 rpm at 25 °C for 24 h, then at 60 °C for 24 h, and finally left to rest, at 25 °C, for another 24 h. UV absorbance was monitored within 190–320 nm on extracts freshly diluted with deionized water, and the maximum wavelength of 226 nm was selected for solubility determinations. All measurements were made in triplicate.

A short description of data set [2]: Phase solubility study with β-CD (apparent solubility constant K1:1). The class given is physicochemical. To be noted: 1:1 complex, K1:1 = Slope/S0(1−Slope); β-CD 0–15 mmol/L. The protocol: as §1
For data set [3], the system named is Swiss albino mice. The data set is described as follows: Tail-flick test. It is filed as in vivo. To be noted: oral gavage. The protocol:
(§2) The tests were performed using Swiss albino mice (25–30 g) which were divided in groups of eight mice each.
The tail-flick test measures the reflex latency after exposure to a heating source, in order to evaluate the spinal response to pain. The tail flick unit (37360; UgoBasile, Gemonio, Italy) directs heat and stimulates the distal part of the mouse tail. The tail-flick latency is defined as the period before the mouse removed its tail from heat stimuli. The pain response at onset and at 1, 2, 3, and 4 h after administration of drugs, was noted. To prevent tissue lesions, the experiment cut-off time was set at 12 s. The pain inhibition (%) was calculated for each tested compound/β-CD complex and for each group the mean value (±S.E.) was reported.
(Hot-plate and tail-flick tests time the reaction to a heat stimulus.)

The subject of data set [4] is Swiss albino mice. Kind of data set: Hot-plate test. It is filed as in vivo. To be noted: oral gavage; for pain inhibition: after 4 h. The protocol: as §2
A hot-plate test was performed using a hot plate apparatus (DS 37; UgoBasile). The plate was set at 55 ± 0.1 °C and the response latency was noted as the interval between placing the animal on the plate and the occurrence of licking, shaking of the hind paws, or jumping off the surface. The latency of the analgesic response was measured at onset and at 1, 2, 3, and 4 h. The experiment cut-off time was set to 15 s to prevent tissue damage. For each group, the mean value (±S.E.) was reported.

The test system of data set [5] is Swiss albino mice. Kind of data set: Acetic acid writhing test. To be noted: acetic acid 1% i.p. 4 h after oral administration, writhes counted over 30 min. It is filed as in vivo. As for the experimental part: as §2
To determine visceral pain, a writhing test was used. […] The mice were placed in a large glass cylinder and the number of abdominal writhes was recorded over a period of 30 min. The inhibition (%) of writhings was calculated to ascertain the analgesic effect. For each group, the mean value (±S.E.) was reported.
In general terms: In writhing tests, fewer writhes than in controls are read as antinociception.

Data set [6] relates to Swiss albino mice. The data set is described as follows: Paw formalin test. The class given is in vivo. To be noted: formalin 5% 4 h after oral administration. The protocol:
as §2
The analgesic and anti-inflammatory effects of the compounds were evaluated using formalin assay. […] The time (s) that the mice spent licking and/or biting the injected paw was recorded. Depending on the time value, the pain can be classified as neurogenic pain (0 to 5 min), interphase pain (5 to 15 min), and inflammatory pain (15 to 30 min). For each group, the mean value (±S.E.) was reported.

Where [7] appears, read: 1/20 of LD50, maximum after 2 h.

Experimental findings from paper PMC10609741 (Pharmaceutics, 2023) are described below.

Converted amounts (≈) assume the structure as drawn.

Broadly, the solubility is the concentration that dissolves in the medium under given conditions. Lower therefore signals little dissolved substance. Compound `CC(C)Cc1ccc(C(C)C(=O)NN2C(=O)CSC2c2ccc(Cl)cc2)cc1` (centres unmarked) [4b] gave a solubility in data set [1] of 9.21 µg/mL (≈ 22.1 µM). Besides, the “apparent solubility constant (K1:1) in the presence of β-CD” value (shortened to “apparent solubility constant”) in data set [2] is 771.81 mol⁻¹. Moreover, the “pain inhibition, maximum effect” value with Swiss albino mice [3] (setting [7]) came to 25.54%. In addition, the pain inhibition in the data set with Swiss albino mice [4] is 58.93%.

As for `CC(C)Cc1ccc(C(C)C(=O)NN2C(=O)CSC2c2ccc([N+](=O)[O-])cc2)cc1` (centres unmarked) [4g], the solubility in data set [1] stood at 15 µg/mL (≈ 35.1 µM). In data set [2], the “apparent solubility constant” value came to 723.50 mol⁻¹. The “pain inhibition, maximum effect” value with Swiss albino mice [3] (setting [7]) is given as 24.90%.

In data set [1], `CC(C)Cc1ccc(C(C)C(=O)NN2C(=O)CSC2c2ccc(C#N)cc2)cc1` (centres unmarked) [4k] displayed a solubility of 22.8 µg/mL (≈ 55.9 µM). Also, the “apparent solubility constant” value in data set [2] was 713.6510 mol⁻¹. In addition, the “pain inhibition, maximum effect” value with Swiss albino mice [3] (1/20 of LD50, maximum at 3 h) is 32.01%. Besides, the pain inhibition with Swiss albino mice [4] is reported as 63.03%. Besides, the inhibition of writhings in the data set with Swiss albino mice [5] worked out at 58.60%.

On to `CC(C)Cc1ccc(C(C)C(=O)NN2C(=O)CSC2c2ccc(N)cc2)cc1` (centres unmarked) [4m], for which the solubility in data set [1] is 38.1 µg/mL (≈ 95.9 µM). For the same compound, in the data set on Swiss albino mice [3] (1/20 of LD50, maximum at 3 h), the “pain inhibition, maximum effect” value was found to be 44.19%. Also, the “time of maximum analgesic effect” value with Swiss albino mice [4] (1/20 of LD50) came to 3 h.

In the case of `CC(C)Cc1ccc(C(C)C(=O)[O-])cc1.[Na+]` (centres unmarked) [Ibu-Na, Ibuprofen sodium, reference compound], the “pain inhibition, maximum effect” value in the data set with Swiss albino mice [3] (1/20 of LD50, maximum at 3 h) is given as 45.86%. The pain inhibition with Swiss albino mice [4] is recorded as 47.22%. Also, the inhibition of writhings with Swiss albino mice [5] was found to be 55.65%. Moreover, in the data set on Swiss albino mice [6] (first phase 0–5 min, neurogenic pain), the “time mice spent licking the formalin-injected paw, first phase” value was 59.50 s. In addition, the “time mice spent licking the formalin-injected paw, second phase” value in the data set on Swiss albino mice [6] (second phase 15–30 min, inflammatory pain) was 32 s.
